Series [1] in a line: in vitro. The settings on record: human, microsomes.
The nature of series [2]: in vitro. The note with it: human, Caco-2, pH 7.4.
A further series concerns the target Human PKa (Homo sapiens, UniProt P03952). The series is described as follows: biochemical. It counts as biochemical.
The next series is described as follows: Dog pharmacokinetics. The series is classed as in vivo, beagle dogs. The settings on record: male, beagle, plasma, iv, 1 mg/kg.
Another series in a line: Rat pharmacokinetics. The settings on record: male, Sprague-Dawley, plasma, iv, 1 mg/kg. The series is classed as in vivo, Sprague-Dawley rats.
The nature of the next series: physchem. The note with it: aqueous buffer, kinetic from dmso stock.
The nature of series [3]: Thermodynamic solubility in FaSSIF / FaSSGF. It counts as physicochemical. The note with it: pH 6.5, solubility FaSSIF, theoretical concentration 1 mg/mL.
Another series concerns the target T1, factor XIIa (Homo sapiens, UniProt P00748).
T1 sequence (P00748 373-615 limits assumed): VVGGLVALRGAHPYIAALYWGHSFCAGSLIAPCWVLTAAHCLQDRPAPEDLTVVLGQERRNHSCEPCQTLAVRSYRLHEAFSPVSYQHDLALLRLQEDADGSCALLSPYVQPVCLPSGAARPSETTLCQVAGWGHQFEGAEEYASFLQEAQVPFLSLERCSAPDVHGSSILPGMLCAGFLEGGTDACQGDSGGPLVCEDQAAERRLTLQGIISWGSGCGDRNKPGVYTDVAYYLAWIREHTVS
Kind of series: biochemical. The note with it: IC50 / off target protease selectivity, FXIIa.

The target in a further series is thrombin (Homo sapiens, UniProt P00734). Kind of series: biochemical. The note with it: IC50 / off target protease selectivity.
The next series has as its target plasmin (Homo sapiens, UniProt P00747). Kind of series: biochemical. The settings on record: IC50 / off target protease selectivity.
The target in the next series is tissue kallikrein (KLK1) (Homo sapiens, UniProt P06870). The series is described as follows: biochemical. The settings on record: IC50 / off target protease selectivity.
Sequence of tissue kallikrein (KLK1) (P06870 25-262): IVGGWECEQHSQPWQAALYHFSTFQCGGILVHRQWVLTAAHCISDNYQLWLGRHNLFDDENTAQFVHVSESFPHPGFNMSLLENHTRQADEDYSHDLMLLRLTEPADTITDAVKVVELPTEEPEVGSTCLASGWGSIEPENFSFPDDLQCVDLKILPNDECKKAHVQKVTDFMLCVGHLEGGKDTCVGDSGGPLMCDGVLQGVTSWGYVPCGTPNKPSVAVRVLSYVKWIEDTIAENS
The target in a further series is factor XIa (Homo sapiens, UniProt P03951). The series is described as follows: biochemical. The note with it: IC50 / off target protease selectivity, FXIa.
Sequence of factor XIa (P03951 388-625 limits assumed): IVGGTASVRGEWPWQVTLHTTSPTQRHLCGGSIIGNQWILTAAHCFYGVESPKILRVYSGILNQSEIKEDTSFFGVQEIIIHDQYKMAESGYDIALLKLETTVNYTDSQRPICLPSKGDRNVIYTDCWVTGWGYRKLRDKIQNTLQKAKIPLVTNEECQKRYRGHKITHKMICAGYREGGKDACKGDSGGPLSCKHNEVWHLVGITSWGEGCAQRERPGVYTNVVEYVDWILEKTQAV
Sequence of factor XIa (P03951 19-387 partner limits assumed): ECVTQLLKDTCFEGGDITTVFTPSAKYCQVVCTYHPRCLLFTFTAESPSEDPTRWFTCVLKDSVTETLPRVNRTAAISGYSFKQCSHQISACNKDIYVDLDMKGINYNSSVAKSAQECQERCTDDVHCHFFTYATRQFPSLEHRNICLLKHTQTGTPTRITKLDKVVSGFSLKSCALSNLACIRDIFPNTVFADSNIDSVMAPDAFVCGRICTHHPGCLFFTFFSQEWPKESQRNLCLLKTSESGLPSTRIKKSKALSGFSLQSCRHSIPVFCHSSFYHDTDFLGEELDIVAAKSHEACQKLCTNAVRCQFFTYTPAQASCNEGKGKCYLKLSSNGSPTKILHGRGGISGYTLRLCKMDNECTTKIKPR
Series [4] can be described thus: Human plasma protein binding. The series is classed as in vitro ADME. The settings on record: % bound.
A further series addresses factor Xa (Homo sapiens, UniProt P00742). The settings on record: read-out: IC50 / off target protease selectivity, FXa.
Series [5] in a line: Measured pKa, PION UV-metric method. The series is classed as physicochemical.
Another series deals with trypsin. The note with it: read-out: IC50 / off target protease selectivity, trypsin.
A further series deals with tryptase. The series is described as follows: Protease selectivity, fluorogenic substrate cleavage assay. It counts as biochemical, human. The settings on record: read-out: IC50 / off target protease selectivity, tryptase.
The target in a further series is hERG channel (Homo sapiens, UniProt Q12809). Kind of series: hERG whole-cell patch clamp. The settings on record: highest level tested 33 μM. (In general: Block of hERG is tested as a sign of cardiac risk.)
Sequence of hERG channel (Q12809 whole entry): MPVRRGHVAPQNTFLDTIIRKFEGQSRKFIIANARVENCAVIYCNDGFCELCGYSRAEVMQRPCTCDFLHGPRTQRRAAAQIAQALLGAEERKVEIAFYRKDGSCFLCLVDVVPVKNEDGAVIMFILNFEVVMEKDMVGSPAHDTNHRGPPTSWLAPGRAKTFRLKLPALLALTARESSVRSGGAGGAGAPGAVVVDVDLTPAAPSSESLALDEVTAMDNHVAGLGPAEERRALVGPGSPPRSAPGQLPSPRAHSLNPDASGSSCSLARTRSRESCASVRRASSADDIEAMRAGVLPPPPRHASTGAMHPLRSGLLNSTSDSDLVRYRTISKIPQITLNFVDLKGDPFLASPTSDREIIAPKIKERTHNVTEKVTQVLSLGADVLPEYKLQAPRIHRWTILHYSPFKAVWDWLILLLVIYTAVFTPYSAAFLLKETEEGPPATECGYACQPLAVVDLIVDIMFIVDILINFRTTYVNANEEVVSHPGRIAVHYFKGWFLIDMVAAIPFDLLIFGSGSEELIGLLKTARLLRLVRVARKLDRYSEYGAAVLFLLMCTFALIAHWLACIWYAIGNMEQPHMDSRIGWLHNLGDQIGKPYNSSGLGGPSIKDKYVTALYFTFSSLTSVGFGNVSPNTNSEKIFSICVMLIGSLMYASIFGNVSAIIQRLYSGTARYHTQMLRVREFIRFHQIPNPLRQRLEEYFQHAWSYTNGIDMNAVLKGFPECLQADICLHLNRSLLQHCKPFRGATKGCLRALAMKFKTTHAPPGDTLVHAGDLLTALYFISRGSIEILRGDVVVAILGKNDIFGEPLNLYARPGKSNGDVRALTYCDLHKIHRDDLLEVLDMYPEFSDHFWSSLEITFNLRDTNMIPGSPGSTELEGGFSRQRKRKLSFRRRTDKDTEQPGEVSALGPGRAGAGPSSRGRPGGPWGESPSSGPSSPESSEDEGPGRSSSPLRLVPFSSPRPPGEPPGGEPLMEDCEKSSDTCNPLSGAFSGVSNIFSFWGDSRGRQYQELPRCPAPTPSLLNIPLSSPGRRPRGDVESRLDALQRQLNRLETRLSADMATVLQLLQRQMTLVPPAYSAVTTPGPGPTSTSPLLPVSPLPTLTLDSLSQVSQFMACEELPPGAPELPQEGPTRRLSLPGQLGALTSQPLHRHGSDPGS
The test system of the next series is bacterial mutagenicity. The series is described as follows: Non-GLP bacterial mutagenicity Ames test. Background: In the Ames test, an excess of revertant colonies over the control signals mutagenicity.
The subject of another series is panel of CYP450 enzymes. The series is described as follows: CYP450 inhibition panel as a whole. The settings on record: up to 25 μM.

Converted amounts (≈) assume the structure as drawn. Read-outs that look alike come from different tables or passages of the source.

Usually microsomal CLint stands for the capacity of the preparation to metabolise the compound, expressed as a volume cleared per time. The low end stands for slow turnover, the high end for rapid turnover. As a reminder, the Papp A→B is how fast a substance crosses the layer from the apical side. A high value points to fast passage. For orientation: clearance means the rate of elimination divided by the concentration. Usually kinetic solubility stands for the concentration staying in solution when a stock, usually in DMSO, is diluted into the medium. One may read the solubility as how much of the substance goes into solution per volume. As a reminder, the pKa is the negative logarithm of the acid dissociation constant.

Sequence of Human PKa (P03952 391-638 limits assumed): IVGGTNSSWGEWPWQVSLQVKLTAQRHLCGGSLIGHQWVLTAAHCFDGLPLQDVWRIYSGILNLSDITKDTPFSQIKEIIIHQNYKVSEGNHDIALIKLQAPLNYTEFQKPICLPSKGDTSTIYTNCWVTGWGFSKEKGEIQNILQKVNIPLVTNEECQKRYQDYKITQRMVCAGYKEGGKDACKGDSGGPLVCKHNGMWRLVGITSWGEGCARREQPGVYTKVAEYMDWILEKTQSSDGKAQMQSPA
Sequence of Human PKa (P03952 20-390 partner limits assumed): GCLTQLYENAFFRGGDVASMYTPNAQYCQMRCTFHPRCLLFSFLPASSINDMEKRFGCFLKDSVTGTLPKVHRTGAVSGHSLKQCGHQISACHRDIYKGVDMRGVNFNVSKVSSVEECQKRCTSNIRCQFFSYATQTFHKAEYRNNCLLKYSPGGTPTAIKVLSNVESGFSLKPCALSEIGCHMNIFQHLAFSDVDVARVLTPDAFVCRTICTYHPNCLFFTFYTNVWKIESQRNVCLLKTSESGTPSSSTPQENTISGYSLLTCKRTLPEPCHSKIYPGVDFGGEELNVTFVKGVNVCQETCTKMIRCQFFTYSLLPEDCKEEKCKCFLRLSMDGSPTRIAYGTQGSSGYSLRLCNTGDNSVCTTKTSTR
Sequence of plasmin (P00747 581-810 limits assumed): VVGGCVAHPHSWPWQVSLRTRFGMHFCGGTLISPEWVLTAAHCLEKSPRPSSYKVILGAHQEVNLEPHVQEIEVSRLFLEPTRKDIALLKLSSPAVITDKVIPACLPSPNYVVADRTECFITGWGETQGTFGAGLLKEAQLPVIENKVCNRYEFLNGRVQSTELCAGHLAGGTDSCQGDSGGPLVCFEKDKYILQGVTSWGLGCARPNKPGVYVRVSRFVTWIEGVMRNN
Sequence of plasmin (P00747 97-580 partner limits assumed): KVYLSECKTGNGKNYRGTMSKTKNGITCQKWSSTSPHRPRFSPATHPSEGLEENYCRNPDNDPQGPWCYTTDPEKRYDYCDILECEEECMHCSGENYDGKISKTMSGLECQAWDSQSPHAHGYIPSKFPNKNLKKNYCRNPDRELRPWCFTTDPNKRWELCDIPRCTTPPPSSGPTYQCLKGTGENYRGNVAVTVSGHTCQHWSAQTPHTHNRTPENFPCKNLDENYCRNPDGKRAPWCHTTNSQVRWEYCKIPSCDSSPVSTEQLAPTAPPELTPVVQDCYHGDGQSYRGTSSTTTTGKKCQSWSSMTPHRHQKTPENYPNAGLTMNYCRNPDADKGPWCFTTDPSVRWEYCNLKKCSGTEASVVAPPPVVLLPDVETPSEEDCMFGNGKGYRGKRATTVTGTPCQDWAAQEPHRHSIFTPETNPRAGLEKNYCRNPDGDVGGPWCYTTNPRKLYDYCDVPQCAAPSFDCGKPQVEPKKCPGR
Sequence of factor Xa (P00742 235-488 limits assumed): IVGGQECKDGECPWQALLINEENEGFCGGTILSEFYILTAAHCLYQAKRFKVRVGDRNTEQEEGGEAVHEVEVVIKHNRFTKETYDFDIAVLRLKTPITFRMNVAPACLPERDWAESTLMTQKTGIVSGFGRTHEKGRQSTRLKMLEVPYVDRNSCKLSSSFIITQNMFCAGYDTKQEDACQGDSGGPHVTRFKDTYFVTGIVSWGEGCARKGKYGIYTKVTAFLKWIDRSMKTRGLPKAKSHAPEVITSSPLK
Sequence of factor Xa (P00742 41-179 partner limits assumed): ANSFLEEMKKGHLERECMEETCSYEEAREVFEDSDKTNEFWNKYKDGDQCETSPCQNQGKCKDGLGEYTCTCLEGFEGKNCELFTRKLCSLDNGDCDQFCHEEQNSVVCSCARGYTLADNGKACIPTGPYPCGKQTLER

In the series “in vitro [1]”, `Nc1nccc2cc(CNC(=O)c3cnn(Cc4ccc(Cn5ccccc5=O)cc4)c3)ccc12` [Compound 6, Nc1nccc2cc(ccc12)CNC(=O)c1cnn(c1)Cc1ccc(cc1)CN1C=CC=CC1=O] came in with a microsomal CLint of 37 µL/min/mg. In the series “in vitro [2]”, this compound displayed an apparent permeability from apical to basolateral (Papp A→B) of 2 ×10⁻⁶ cm/s.

Consider `COCc1nn(Cc2ccc(Cn3ccccc3=O)cc2)cc1C(=O)NCc1c(F)ccc(OC)c1F` [Compound 13b, COCc1nn(cc1C(=O)NCc1c(ccc(c1F)OC)F)Cc1ccc(cc1)CN1C=CC=CC1=O], for which the “kinetic sol 0.1 N HCl” value is on record as greater than 0.12 mg/mL and the “kinetic sol aq assay buffer (pH 7.4)” value is listed as greater than 0.12 mg/mL. Besides, the “kinetics (in words)” value at Human PKa is given as “fast kinetics”. Besides, the LLE at Human PKa (lipophilic ligand efficiency) worked out at 5.4. The clearance at 24 h in the series “Dog pharmacokinetics” stood at 11.5 mL/min/kg. The clearance at 24 h in “Rat pharmacokinetics” stood at 12.8 mL/min/kg.

`COCc1nn(Cc2ccc(Cn3ccccc3=O)cc2)cc1C(=O)NCc1cccc(OC)c1F` [Compound 13d, COCc1nn(cc1C(=O)NCc1cccc(c1F)OC)Cc1ccc(cc1)CN1C=CC=CC1=O]: the “kinetic sol 0.1 N HCl” value is given as greater than 0.12 mg/mL and the “kinetic sol aq assay buffer (pH 7.4)” value was greater than 0.12 mg/mL.

As to `COc1cccc(CNC(=O)c2cn(Cc3ccc(Cn4ccccc4=O)cc3)nc2N(C)C)c1F` [Compound 13e, COc1cccc(c1F)CNC(=O)c1cn(nc1N(C)C)Cc1ccc(cc1)CN1C=CC=CC1=O], the “kinetic sol 0.1 N HCl” value is greater than 0.12 mg/mL and the “kinetic sol aq assay buffer (pH 7.4)” value was greater than 0.12 mg/mL.

In the case of `COc1cccc(CNC(=O)c2cn(Cc3ccc(Cn4ccccc4=O)cc3)nc2C2CC2)c1F` [Compound 13f, COc1cccc(c1F)CNC(=O)c1cn(nc1C1CC1)Cc1ccc(cc1)CN1C=CC=CC1=O], the “kinetic sol 0.1 N HCl” value is given as greater than 0.11 mg/mL and the “kinetic sol aq assay buffer (pH 7.4)” value is reported as 0.058–0.11 mg/mL. On Human PKa (lipophilic ligand efficiency), the LLE is listed as 4.4.

As for `COCc1nn(Cc2ccc(Cn3ccccc3=O)cc2)cc1C(=O)NCc1cccc(O)c1F` [Compound 13g, COCc1nn(cc1C(=O)NCc1cccc(c1F)O)Cc1ccc(cc1)CN1C=CC=CC1=O], the “kinetic sol 0.1 N HCl” value was greater than 0.12 mg/mL and the “kinetic sol aq assay buffer (pH 7.4)” value is on record as greater than 0.12 mg/mL.

For `CCc1cccc(CNC(=O)c2cn(Cc3ccc(Cn4ccccc4=O)cc3)nc2COC)c1F` [Compound 13h, CCc1cccc(c1F)CNC(=O)c1cn(nc1COC)Cc1ccc(cc1)CN1C=CC=CC1=O], the “kinetic sol aq assay buffer (pH 7.4)” value was greater than 0.12 mg/mL. This compound had an LLE at Human PKa of 3.7. Besides, in the series “physchem”, the solubility (kinetic) lay in the range of 29 to 59 µg/mL (≈ 59.4 to 121 µM).

For `COCc1nn(Cc2ccc(Cn3ccccc3=O)cc2)cc1C(=O)NCc1cccc(OC(F)F)c1F` [Compound 13i, COCc1nn(cc1C(=O)NCc1cccc(c1F)OC(F)F)Cc1ccc(cc1)CN1C=CC=CC1=O], the “kinetic sol aq assay buffer (pH 7.4)” value is greater than 0.12 mg/mL. Besides, the IC50 on Human PKa came out at 0.15 µM. For the same compound, the LLE at Human PKa (lipophilic ligand efficiency) is 4.2. The compound further registered a solubility (kinetic) in “physchem” of 63 to 120 µg/mL (≈ 120 to 228 µM).

With `COCc1nn(Cc2ccc(Cn3ccccc3=O)cc2)cc1C(=O)NCc1c(Cl)ccc(OC)c1F` [Compound 13j, COCc1nn(cc1C(=O)NCc1c(ccc(c1F)OC)Cl)Cc1ccc(cc1)CN1C=CC=CC1=O], the “kinetic sol 0.1 N HCl” value is recorded as greater than 0.12 mg/mL and the “kinetic sol aq assay buffer (pH 7.4)” value is listed as greater than 0.12 mg/mL.

Turning to `COCc1nn(Cc2ccc(Cn3ccccc3=O)cc2)cc1C(=O)NCc1c(C#N)ccc(OC)c1F` [Compound 13k, COCc1nn(cc1C(=O)NCc1c(c(ccc1C#N)OC)F)Cc1ccc(cc1)CN1C=CC=CC1=O], the “kinetic sol 0.1 N HCl” value was greater than 0.12 mg/mL and the “kinetic sol aq assay buffer (pH 7.4)” value is listed as greater than 0.12 mg/mL. Also, the clearance at 24 h in “Rat pharmacokinetics” stood at 16 mL/min/kg.

As for `COCc1nn(Cc2ccc(Cn3ccccc3=O)cc2)cc1C(=O)NCc1cc(OC)ccc1F` [Compound 13l, COCc1nn(cc1C(=O)NCc1cc(ccc1F)OC)Cc1ccc(cc1)CN1C=CC=CC1=O], the “kinetic sol 0.1 N HCl” value is recorded as greater than 0.12 mg/mL and the “kinetic sol aq assay buffer (pH 7.4)” value is recorded as greater than 0.12 mg/mL.

In series [3], `COCc1nn(Cc2ccc(Cn3ccccc3=O)cc2)cc1C(=O)NCc1nccc(OC)c1C` [Compound 14s, COCc1nn(cc1C(=O)NCc1nccc(c1C)OC)Cc1ccc(cc1)CN1C=CC=CC1=O] had a solubility at 4 h greater than 100 µg/mL. Besides, the IC50 was greater than 10 µM at factor XIIa; 7.5 µM at thrombin; greater than 10 µM against plasmin; greater than 10 µM against tissue kallikrein (KLK1); greater than 10 µM on factor XIa. In addition, in the series “Rat pharmacokinetics”, the clearance at 24 h was 14 mL/min/kg.

Regarding `COCc1nn(Cc2ccc(Cn3ccccc3=O)cc2)cc1C(=O)NCc1nccc(OC)c1F` [Compound 14w, 3-Methoxymethyl-1-[4-(2-oxo-2H-pyridin-1-ylmethyl)-benzyl]-1H-pyrazole-4-carboxylic Acid (3-Fluoro-4-methoxy-pyridin-2-ylmethyl)-amide], the “kinetics (in words)” value at Human PKa was “fast kinetics”. Besides, the “human plasma protein binding (PPB)” value in series [4] is 77%. In addition, the clearance at 24 h in the series “Dog pharmacokinetics” was found to be 8.7 mL/min/kg; in “Rat pharmacokinetics”, 11.7 mL/min/kg. Besides, the IC50 at factor Xa is greater than 10 µM; with trypsin, greater than 10 µM; with trypsin (listed as Sebetralstat) it was greater than 40 µM; on tryptase it was greater than 10 µM. For the same compound, in series [5], the pKa turned out to be 3.6. Besides, the “inhibition of hERG channel (in words)” value against hERG channel is on record as “no significant inhibition”. In addition, in the series with bacterial mutagenicity, the “Non-GLP Ames” value is “no risk of genotoxicity”. Besides, the “CYP450 panel profile (in words)” value in the series with panel of CYP450 enzymes is on record as “clean profiles up to the highest concentration tested”.

Take `COc1ccnc(CNC(=O)c2cn(Cc3ccc(Cn4ccccc4=O)cc3)nc2C(F)(F)F)c1F` [Compound 16, COc1ccnc(c1F)CNC(=O)c1cn(nc1C(F)(F)F)Cc1ccc(cc1)CN1C=CC=CC1=O]: the “kinetics (in words)” value on Human PKa was “fast kinetics”. The “human plasma protein binding (PPB)” value in [4] amounted to 87%. For the same compound, the clearance at 24 h is 10 mL/min/kg in the series “Dog pharmacokinetics” and 7.1 mL/min/kg in “Rat pharmacokinetics”. Also, the IC50 at factor XIIa, with trypsin, on thrombin, on plasmin, on tissue kallikrein (KLK1) and against factor XIa was greater than 10 µM throughout. Also, the “CYP450 panel profile (in words)” value with panel of CYP450 enzymes is given as “clean profiles up to the highest concentration tested”.

The values above are taken from publication PMC9620001 (Journal of Medicinal Chemistry, 2022).
